Source: PubChem BioAssay (NCI)
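Five concentrations, 48 hours, 96-well plates. GI50 = concentration required for 50% inhibition of growth. TGI denotes the concentration required for complete inhibition of growth.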

What was measured:
Assay in all cases: NCI-60 cell line screen, 48 h
HCT-116 colon = system: HCT-116 colon
SF-295 CNS = system: SF-295 CNS
OVCAR-8 ovarian = system: OVCAR-8 ovarian
UO-31 renal = system: UO-31 renal
M14 melanoma = system: M14 melanoma
K-562 leukemia = system: K-562 leukemia
HT29 colon = system: HT29 colon
SNB-19 CNS = system: SNB-19 CNS
OVCAR-5 ovarian = system: OVCAR-5 ovarian
IGROV1 ovarian = system: IGROV1 ovarian
TK-10 renal = system: TK-10 renal
NCI-H23 lung = system: NCI-H23 lung
SK-MEL-28 melanoma = system: SK-MEL-28 melanoma
HCC-2998 colon = system: HCC-2998 colon
A498 renal = system: A498 renal
SK-MEL-5 melanoma = system: SK-MEL-5 melanoma
786-0 renal = system: 786-0 renal
EKVX NSCLC = system: EKVX NSCLC
NCI/ADR-RES ovarian = system: NCI/ADR-RES ovarian
SF-268 CNS = system: SF-268 CNS
HS 578T breast = system: HS 578T breast
BT-549 breast = system: BT-549 breast
SK-OV-3 ovarian = system: SK-OV-3 ovarian
ACHN renal = system: ACHN renal
HOP-92 NSCLC = system: HOP-92 NSCLC
COLO 205 colon = system: COLO 205 colon
NCI-H226 lung = system: NCI-H226 lung
DU-145 prostate = system: DU-145 prostate
PC-3 prostate = system: PC-3 prostate
SW-620 colon = system: SW-620 colon
HCT-15 colon = system: HCT-15 colon
MALME-3M melanoma = system: MALME-3M melanoma
SR leukemia = system: SR leukemia
CAKI-1 renal = system: CAKI-1 renal
RXF 393 renal = system: RXF 393 renal
SNB-75 CNS = system: SNB-75 CNS
MOLT-4 leukemia = system: MOLT-4 leukemia
SK-MEL-2 melanoma = system: SK-MEL-2 melanoma
KM12 colon = system: KM12 colon
UACC-62 melanoma = system: UACC-62 melanoma
NCI-H522 lung = system: NCI-H522 lung
MDA-MB-435 = system: MDA-MB-435
T-47D breast = system: T-47D breast
SF-539 CNS = system: SF-539 CNS
A549 NSCLC = system: A549 NSCLC
NCI-H460 lung = system: NCI-H460 lung
U251 CNS = system: U251 CNS
LOX IMVI melanoma = system: LOX IMVI melanoma
HL-60(TB) leukemia = system: HL-60(TB) leukemia
MDA-MB-231 breast = system: MDA-MB-231 breast
UACC-257 melanoma = system: UACC-257 melanoma
HOP-62 NSCLC = system: HOP-62 NSCLC
SN12C renal = system: SN12C renal
RPMI-8226 leukemia = system: RPMI-8226 leukemia
CCRF-CEM leukemia = system: CCRF-CEM leukemia
OVCAR-4 ovarian = system: OVCAR-4 ovarian
OVCAR-3 ovarian = system: OVCAR-3 ovarian

What does the source list for O=C(N/N=C/c1ccccc1O)C(O)(c1ccccc1)c1ccccc1?
GI50 (HCT-116 colon): 2.95 µM; TGI (HCT-116 colon): > 100 µM; GI50 (SF-295 CNS): 4.5 µM; TGI (SF-295 CNS): > 100 µM; GI50 (OVCAR-8 ovarian): 13.1 µM; TGI (OVCAR-8 ovarian): > 100 µM; GI50 (UO-31 renal): 2 µM; TGI (UO-31 renal): > 100 µM; GI50 (M14 melanoma): 50.5 µM; TGI (M14 melanoma): > 100 µM; GI50 (K-562 leukemia): 6.73 µM; TGI (K-562 leukemia): > 100 µM; GI50 (HT29 colon): 4.46 µM; TGI (HT29 colon): > 100 µM; GI50 (SNB-19 CNS): > 100 µM; TGI (SNB-19 CNS): > 100 µM; GI50 (OVCAR-5 ovarian): > 100 µM; TGI (OVCAR-5 ovarian): > 100 µM; GI50 (IGROV1 ovarian): 3.83 µM; TGI (IGROV1 ovarian): > 100 µM; GI50 (TK-10 renal): > 100 µM; TGI (TK-10 renal): > 100 µM; GI50 (NCI-H23 lung): > 100 µM; TGI (NCI-H23 lung): > 100 µM; GI50 (SK-MEL-28 melanoma): > 100 µM; TGI (SK-MEL-28 melanoma): > 100 µM; GI50 (HCC-2998 colon): 17.4 µM; TGI (HCC-2998 colon): > 100 µM; GI50 (A498 renal): > 100 µM; TGI (A498 renal): > 100 µM; GI50 (SK-MEL-5 melanoma): > 100 µM; TGI (SK-MEL-5 melanoma): > 100 µM; GI50 (786-0 renal): > 100 µM; TGI (786-0 renal): > 100 µM; GI50 (EKVX NSCLC): 3.6 µM; TGI (EKVX NSCLC): > 100 µM; GI50 (NCI/ADR-RES ovarian): 7.65 µM; TGI (NCI/ADR-RES ovarian): > 100 µM; GI50 (SF-268 CNS): 8.69 µM; TGI (SF-268 CNS): > 100 µM; GI50 (HS 578T breast): > 100 µM; TGI (HS 578T breast): > 100 µM; GI50 (BT-549 breast): > 100 µM; TGI (BT-549 breast): > 100 µM; GI50 (SK-OV-3 ovarian): > 100 µM; TGI (SK-OV-3 ovarian): > 100 µM; GI50 (ACHN renal): 8.43 µM; TGI (ACHN renal): > 100 µM; GI50 (HOP-92 NSCLC): > 100 µM; TGI (HOP-92 NSCLC): > 100 µM; GI50 (COLO 205 colon): 3.43 µM; TGI (COLO 205 colon): > 100 µM; GI50 (NCI-H226 lung): > 100 µM; TGI (NCI-H226 lung): > 100 µM; GI50 (DU-145 prostate): > 100 µM; TGI (DU-145 prostate): > 100 µM; GI50 (PC-3 prostate): > 100 µM; TGI (PC-3 prostate): > 100 µM; GI50 (SW-620 colon): > 100 µM; TGI (SW-620 colon): > 100 µM; GI50 (HCT-15 colon): 3.54 µM; TGI (HCT-15 colon): > 100 µM; GI50 (MALME-3M melanoma): > 100 µM; TGI (MALME-3M melanoma): > 100 µM; GI50 (SR leukemia): 4.29 µM; TGI (SR leukemia): > 100 µM; GI50 (CAKI-1 renal): 2.36 µM; TGI (CAKI-1 renal): > 100 µM; GI50 (RXF 393 renal): > 100 µM; TGI (RXF 393 renal): > 100 µM; GI50 (SNB-75 CNS): > 100 µM; TGI (SNB-75 CNS): > 100 µM; GI50 (MOLT-4 leukemia): 4.46 µM; TGI (MOLT-4 leukemia): > 100 µM; GI50 (SK-MEL-2 melanoma): 53.1 µM; TGI (SK-MEL-2 melanoma): > 100 µM; GI50 (KM12 colon): 9.93 µM; TGI (KM12 colon): > 100 µM; GI50 (UACC-62 melanoma): 15 µM; TGI (UACC-62 melanoma): > 100 µM; GI50 (NCI-H522 lung): 19.7 µM; TGI (NCI-H522 lung): > 100 µM; GI50 (MDA-MB-435): > 100 µM; TGI (MDA-MB-435): > 100 µM; GI50 (T-47D breast): 8.02 µM; TGI (T-47D breast): > 100 µM; GI50 (SF-539 CNS): > 100 µM; TGI (SF-539 CNS): > 100 µM; GI50 (A549 NSCLC): 9.67 µM; TGI (A549 NSCLC): > 100 µM; GI50 (NCI-H460 lung): 3.54 µM; TGI (NCI-H460 lung): > 100 µM; GI50 (U251 CNS): 4.77 µM; TGI (U251 CNS): > 100 µM; GI50 (LOX IMVI melanoma): 5.09 µM; TGI (LOX IMVI melanoma): > 100 µM; GI50 (HL-60(TB) leukemia): 2.88 µM; TGI (HL-60(TB) leukemia): > 100 µM; GI50 (MDA-MB-231 breast): 15 µM; TGI (MDA-MB-231 breast): > 100 µM; GI50 (UACC-257 melanoma): 5.99 µM; TGI (UACC-257 melanoma): > 100 µM; GI50 (HOP-62 NSCLC): 7.37 µM; TGI (HOP-62 NSCLC): > 100 µM; GI50 (SN12C renal): > 100 µM; TGI (SN12C renal): > 100 µM; GI50 (RPMI-8226 leukemia): > 100 µM; TGI (RPMI-8226 leukemia): > 100 µM; GI50 (CCRF-CEM leukemia): 2.26 µM; TGI (CCRF-CEM leukemia): > 100 µM; GI50 (OVCAR-4 ovarian): 3.43 µM; TGI (OVCAR-4 ovarian): > 100 µM; GI50 (OVCAR-3 ovarian): 2.66 µM; TGI (OVCAR-3 ovarian): > 100 µM
